Source: US4937243A, “Thiol carboxylic acid derivatives and their use as colagenase inhibitors” (Beecham Group p.l.c., priority 1986, dated 1990)

Target: T1, purified rabbit bone collagenase (Oryctolagus cuniculus, UniProt P13943)
T1 construct: from tissue; host or cells: rabbit bone
T1 sequence (P13943 99-468): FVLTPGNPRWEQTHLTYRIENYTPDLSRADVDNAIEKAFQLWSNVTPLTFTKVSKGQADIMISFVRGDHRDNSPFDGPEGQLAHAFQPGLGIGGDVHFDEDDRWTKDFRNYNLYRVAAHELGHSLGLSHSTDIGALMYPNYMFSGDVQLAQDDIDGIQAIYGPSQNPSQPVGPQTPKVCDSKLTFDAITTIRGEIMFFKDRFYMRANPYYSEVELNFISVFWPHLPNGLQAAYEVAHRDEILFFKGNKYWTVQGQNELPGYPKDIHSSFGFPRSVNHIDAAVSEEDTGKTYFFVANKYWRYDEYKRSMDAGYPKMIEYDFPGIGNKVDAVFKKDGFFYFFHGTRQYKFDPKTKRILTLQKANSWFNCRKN
Assay: Collagenase inhibitor assay (14C-acetylated rat skin Type I collagen as substrate)
Assay type: biochemical
Conditions: 5-15 min preincubation at 37° C., 37° C. overnight, read-out: IC50 (amount of compound which inhibits a known amount of enzyme by 50%)
Description: The test is performed essentially as in Cawston and Barrett Anal. Biochem. 99, 340-345 (1979). Compounds for testing are dissolved in methanol and added to purified rabbit bone collagenase in buffer. After a 5-15 min incubation at 37° C., the assay tubes are cooled to 4° C. and ^14 C-acetylated rat skin Type I collagen is added. The assay tubes are incubated at 37° C. overnight. The ^14 C-collagen forms insoluble fibrils which are the substrate for the enzyme.
To terminate the assay, the assay tubes are spun at 12000 rpm for 15 min. Undigested ^14 C-collagen is pelleted, digested ^14 C-collagen is found as soluble peptides in the supernatant. A sample of the supernatant is taken for liquid scintillation counting.

| SMILES | IC50 [nM] |
| --- | --- |
| CNC(=O)[C@H](Cc1ccc(OC)cc1)NC(=O)C(CC(C)C)C(S)CC(=O)OC (mixture of isomers) [2 mixture of diastereoisomers] | 100 |
| CNC(=O)[C@H](Cc1ccc(OC)cc1)NC(=O)C(CC(C)C)C(S)CC(=O)OC (single isomer, unassigned) [2 A] | 3.9 to 6.4 |
| CNC(=O)[C@H](Cc1ccc(OC)cc1)NC(=O)C(CC(C)C)C(S)CC(=O)OC (single isomer, unassigned) [2 B] | 72 |
| CNC(=O)[C@H](Cc1ccc(OC)cc1)NC(=O)C(CC(C)C)C(S)CC(=O)OCc1ccccc1 (single isomer, unassigned) [4 A] | 31 |
| CNC(=O)[C@H](Cc1ccc(OC)cc1)NC(=O)C(CC(C)C)C(S)CC(=O)OCc1ccccc1 (single isomer, unassigned) [4 B] | 270 |
| CNC(=O)[C@H](Cc1ccc(OC)cc1)NC(=O)C(CC(C)C)C(S)CC(=O)OCc1ccccc1 (single isomer, unassigned) [4 C] | 230 |
| CNC(=O)[C@H](Cc1ccc(OC)cc1)NC(=O)C(CC(C)C)C(S)CC(=O)OCc1ccccc1 (single isomer, unassigned) [4 D] | 12600 |
| CNC(=O)CC(S)C(CC(C)C)C(=O)N[C@@H](Cc1ccc(OC)cc1)C(=O)NC (single isomer, unassigned) [8 A] | 4.7 to 14 |
| CNC(=O)[C@H](Cc1ccccc1)NC(=O)C(CC(C)C)C(S)CC(=O)OC (single isomer, unassigned) [10 A] | 8.3 |
